pIC50: −log10 of the molar value.
Tests used:
human KHK-C = human KHK-C (Homo sapiens (Human), UniProt P50053); test: KHK Enzyme Activity Assay for Human KHK-C; assay type: biochemical; conditions: fructose 250 μM, ATP 150 μM; F1P production by RapidFire MS; read-out: hKHK-C IC50
Method: (§1) KHK Enzyme Activity Assay for Human KHK-C and Human KHK-A
(§2) The intrinsic potency for inhitibiton of KHK C or A activity may be measured using an enzymatic assay which measures the production of F1P. Compounds are prepared in DMSO and tested in a 10-point concentration curve, to create 3-fold serial dilutions of the compounds in a 96-well plate ranging from 20 μM to 1.02 nM. Enzyme is prepared in assay buffer [50 mM 4-(2-hydroxyethyl)piperazine-1-ethanesulfonic acid (HEPES), 10 mM potassium chloride, 100 mM magnesium chloride, 2 mM tris(2-carboxyethyl)phosphine (TCEP), 0.01% n-octyl glucoside] and incubated with compounds at RT for 15 min. The reaction is carried out in 100 μL volumes containing substrate concentrations of fructose (250 μM for KHK-C assay and 1.25 mM for KHK-A assay) and ATP (150 μM for both isoforms); which are further incubated at RT for 20 min. The reaction is then halted by the addition of stop buffer; consisting of 0.2% formic acid and 1 μg/ml ^13C6-fructose-6-phosphate (^13C6-F6P) internal standard. Plates are stored in −20° C. until RapidFire MS analysis.
(§3) RapidFire MS Analysis for Quantitation of F1P
(§4) An Agilent 300 RapidFire automated extraction system (Agilent, Santa Clara, CA) with three HPLC quaternary pumps is coupled to an Agilent 6495 triple quadrupole mass spectrometer (Agilent Technologies, Santa Clara, CA) equipped with an electrospray ionization (ESI) interface source. […]
(§5) Solvent A, used for sample loading and washing, is 6 mM octylamine (Acros Organics 129495000) brought to pH 5.0 using acetic acid. […] Samples are sequentially analyzed by aspirating 10 μL onto the collection loop under vacuum directly from multiwell plates. […]
(§6) The triple quadrupole mass spectrometer is equipped with an ESI source and analytes are monitored using selected reaction monitoring (SRM) in negative mode [M−H]−. F1P is monitored at m/z 259.02/96.9 and ^13C6-fructose-6-phospate is monitored at m/z 264.99/97. The area ratio values for F1P is calculated using ^13C6-fructose-6-phospate as internal standard.

human KHK-A = human KHK-A (Homo sapiens (Human), UniProt P50053); test: KHK Enzyme Activity Assay for Human KHK-A; assay type: biochemical; conditions: fructose 1.25 mM, ATP 150 μM; F1P production by RapidFire MS; read-out: hKHK-A IC50
Method: as §1, §2, §3, §4, §5, §6

[1] = Pharmacokinetics in Sprague Dawley Rats; assay type: in vivo; conditions: rat; for clearance / half-life / bioavailability: Sprague-Dawley, plasma, IV 1 mg/kg; for bioavailability: fasted, PO 3 mg/kg; for oral bioavailability / total clearance: result in words
Method: (§7) Liquid Chromatograph with Tandem Mass Spectrometry (LC-MS/MS) Method for Pharmacokinetic Assays: Samples are extracted using a protein precipitation by adding 180 μL of MeOH:ACN (1:1, v/v) containing an internal standard to 50 μL of plasma. Samples are then diluted with MeOH:Water (1:1, v/v) to get concentrations within standard curve range. Diluted samples are analyzed by LC-MS/MS using a Sciex API 4000 triple quadrupole mass spectrometer (Applied Biosystems/MDS; Foster City, CA) equipped with a TurboIonSpray interface, and operated in positive ion mode. The analytes are chromatographically separated using a ECHELON C18 4 um 20×2.1 mm column. LC conditions are Water/1 M ammonium bicarbonate, (2000:10, v/v) (Mobile Phase A), and MeOH/1 M ammonium bicarbonate, (2000:10, v/v) (Mobile Phase B).
Pharmacokinetics in Sprague Dawley Rats
(§8) The compound is administered by a single oral (PO; 3 mg/kg; volume of 10 mL/kg) or intravenous (IV; 1 mg/kg; volume of 1 mL/kg) dose in vehicle. Blood is collected from each animal at multiple time points between 0 and up to 24 hours post-dosage. The plasma concentrations of Example 2 and Example 3 are determined by a LC-MS/MS method as described above.

Pharmacokinetics in Dogs = assay type: in vivo, Beagle Dogs; conditions: for oral bioavailability / total clearance: dog (in the rat [sic]), result in words
Method: as §7
as §8, with “(PO; 2” for “(PO; 3”, “of 2” for “of 10”

[2] = system: cellular KHK in HepG2 liver cells; test: KHK Cellular Activity Assay (conversion of fructose to F1P in HepG2 liver cells); assay type: cell-based; conditions: Homo sapiens, 8.33 mM D-Fructose-13C6, 3 h at 37° C.
Method: An Agilent 300 RapidFire automated extraction system (Agilent, Santa Clara, CA) with three HPLC quaternary pumps is coupled to an Agilent 6495 triple quadrupole mass spectrometer (Agilent Technologies, Santa Clara, CA) equipped with an electrospray ionization (ESI) interface source. The RapidFire Mass Spec system is equipped with a reusable RapidFire C18 (type C) solid-phase extraction (SPE) cartridge (G9205A).
Solvent A, used for sample loading and washing, is 6 mM octylamine (Acros Organics 129495000) brought to pH 5.0 using acetic acid. Solvent B, used for sample elution, is 20% water in ACN containing 0.1% formic acid. Samples are sequentially analyzed by aspirating 10 μL onto the collection loop under vacuum directly from multiwell plates. The 10 μL of sample is loaded onto the C18 cartridge and washed using solvent A at a flow rate of 1.25 mL/min for 5000 ms. The retained analytes are then eluted to the mass spectrometer using solvent B at a flow rate of 1.25 mL/min for 5000 ms. The system is re-equilibrated using solvent A at a flow rate of 1.25 mL/min for 2000 ms.
as §6
KHK Cellular Activity Assay
Potency can be measured using a cellular assay for the inhibition of conversion of Fructose to F1P by cellular KHK. HepG2 liver cells are plated on 96-well cell culture plates in growth media [Dulbecco's Modified Eagle's medium (DMEM) high glucose, 10% heat-inactivated fetal bovine serum (HI FBS), 1×Penicillin/streptomycin] and allowed to attach overnight in a 37° C. incubator. The growth media is washed and replaced with assay media consisting of Gibco OptiMEM1 Reduced Serum Medium, 0.1% Casein, 8.33 mM D-Fructose-^13C6, and compound concentrations ranging from 100 μM to 0.0051 μM (10-point concentration curve). […]

[3] = administered for 6 weeks; subjects with non-alcoholic fatty liver disease; cited from earlier work
[4] = beagle, plasma, dog, fed, IV 1 mg/kg

Sequence of human KHK-A (P50053 other isoform, or with tags, fused parts or gaps): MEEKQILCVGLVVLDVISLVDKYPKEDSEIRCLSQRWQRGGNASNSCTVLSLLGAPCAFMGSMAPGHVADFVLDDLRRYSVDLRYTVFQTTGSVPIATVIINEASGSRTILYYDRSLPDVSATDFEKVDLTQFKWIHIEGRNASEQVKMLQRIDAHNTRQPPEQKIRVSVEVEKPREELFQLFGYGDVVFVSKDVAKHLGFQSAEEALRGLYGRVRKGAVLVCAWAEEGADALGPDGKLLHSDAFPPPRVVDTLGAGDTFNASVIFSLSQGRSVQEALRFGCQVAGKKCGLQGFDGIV
Sequence of human KHK-C (P50053 whole entry): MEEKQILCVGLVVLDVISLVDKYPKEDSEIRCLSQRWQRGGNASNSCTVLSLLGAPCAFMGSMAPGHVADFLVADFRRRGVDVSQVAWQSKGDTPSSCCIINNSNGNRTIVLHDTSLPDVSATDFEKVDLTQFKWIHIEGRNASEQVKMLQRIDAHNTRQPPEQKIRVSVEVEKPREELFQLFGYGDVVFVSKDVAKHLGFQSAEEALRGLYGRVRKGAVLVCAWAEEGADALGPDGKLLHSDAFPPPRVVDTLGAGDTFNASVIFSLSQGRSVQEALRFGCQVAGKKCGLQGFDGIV

Row | SMILES | pIC50 (human KHK-C) | pIC50 (human KHK-A) | clearance [1] | half-life [1] | bioavailability [1] | oral bioavailability [1] | total clearance [1] | clearance (Pharmacokinetics in Dogs; [4]) | half-life (Pharmacokinetics in Dogs; [4]) | oral bioavailability (Pharmacokinetics in Dogs) | total clearance (Pharmacokinetics in Dogs) | pIC50 [2] | half-life (Pharmacokinetics in Dogs; beagle, plasma, dog, fed, PO 2 mg/kg) | bioavailability (Pharmacokinetics in Dogs; beagle, plasma, dog, fed, PO 2 mg/kg, IV 1 mg/kg) | whole liver fat as measured by magnetic resonance imaging-proton density fat fraction [3]
1 | C[C@H]1CCN1c1nc(-c2ccc(C(=O)N3C[C@@H](O)[C@@H](O)C3)cc2)cc(C(F)(F)F)n1 [Example 2, [(3R,4S)-3,4-Dihydroxypyrrolidin-1-yl]-[4-{2-[(2S)-2-methylazetidin-1-yl]-6-(trifluoromethyl)pyrimidin-4-yl}phenyl]methanone] | 7.64 | 7.90 | 5.57 mL/min/kg | 6.42 h | 65% | high | low | 2.15 mL/min/kg | 11.3 h | high | low | 6.73 | – | – | –
2 | C[C@H]1CCN1c1nc(-c2ccc(C(=O)NC(CO)(CO)CO)cc2)cc(C(F)(F)F)n1 [Example 3, N-[2-Hydroxy-1,1-bis(hydroxymethyl)ethyl]-4-{2-[(2S)-2-methylazetidin-1-yl]-6-(trifluoromethyl)pyrimidin-4-yl}benzamide] | 7.53 | 7.63 | 12.7 mL/min/kg | 2.95 h | 69% | high | low | 4.77 mL/min/kg | 5.07 h | high | low | 7.09 | 4.52 h | ~96% | –
3 | C[C@H]1CCN1c1nc(N2C[C@@H]3[C@@H](CC(=O)O)[C@@H]3C2)cc(C(F)(F)F)n1 [PF-06835919] | – | – | – | – | – | – | – | – | – | – | – | – | – | – | reduces whole liver fat
4 | C[C@H]1CCN1c1nc(-c2ccc(C(=O)O)cc2)cc(C(F)(F)F)n1 [Example 1, 4-{2-[(2S)-2-Methylazetidin-1-yl]-6-(trifluoromethyl)pyrimidin-4-yl}benzoic acid] | 7.65 | 7.67 | – | – | – | – | – | – | – | – | – | 6.04 | – | – | –

Reference: US12479829B2, “2-[2-methylazetidin-1-yl]-4-phenyl-6-(trifluoromethyl)-pyrimidine compounds” (Eli Lilly and Company, priority 2020, dated 2025)
